This note sets out measurements from patent US20180110740A1, “METHODS AND MATERIALS FOR TREATING ENDOMETRIOSIS” (Mayo Foundation for Medical Education and Research, priority 2015, published 2018).

The subject of one data set is CYP3A4. Description: CYP3A4 promoter, expression and activity in Ishikawa cells (reporter assay, qPCR, western blot, specific substrate assay). Format: cell-based. To be noted: Dioxin 0.1-10 nM. As for the experimental part:
(§1) Ishikawa cells were treated with Dioxin (0.1-10 nM) and KLF11 or EV-control. Treatment effects were determined on CYP3A4, a well-characterized CYP450 gene that is also an endometrial estrogen metabolizing enzyme. Promoter and gene expression were determined by reporter assay, qPCR, and western blot. CYP3A4 activity was determined by a specific substrate assay. Promoter histone code was evaluated by ChIP in Ishikawa treated with Dioxin and Histone Acetyl Transferase Inhibitor (HATI) or controls. The Dioxin-endometriosis model was created per published protocols in wild type mice gavaged with Dioxin (3 μg/kg) or vehicle. Animals were additionally treated 0.2 μg/gm/day of HATI or vehicle control (N=10/grp). Disease progression was evaluated in 12 weeks by morphometry, IHC, and qPCR.
Background: In a reporter assay the amount or activity of a reporter protein is the signal.

Data set [1] relates to endometriotic progression. Description: Dioxin-endometriosis model in wild type mice. Format: in vivo. To be noted: wild type mice gavaged with Dioxin 3 μg/kg, HATI 0.2 μg/gm/day or vehicle. As for the experimental part:
as §1

A further data set concerns endometriotic lesions. Description: Endometriotic lesion model: autologous uterine segments implanted onto the peritoneum of Klf11-/- or wt mice. Format: in vivo. To be noted: wt animals; 50 μg/g of body weight; evaluated three weeks after treatment; vs DMSO. As for the experimental part:
FIG. 4 is a schematic diagram showing the design of the mouse endometriosis model. Two 0.5 cm uterine fragments are everted, so that the endometrium faces the peritonel cavity. These are then sutured to the flank peritoneum on either side by 8/0 proline microfilament suture.
FIG. 5 contains photographs of Klf11^-/- and wt animals induced to produce endometriosis lesions and treated with DMSO (control), garcinol (0.2 μg/g of body weight, or suberoyl anilide hydroxamic acid (SAHA; 50 μg/g of body weight). SAHA is also known as N-hydroxy-N′-phenyl-octanediamide or vorinostat. Endometriotic progression was evaluated three weeks after treatment. The arrows point to and define lesion associated scarring.
In another experiment, endometriotic lesions were induced in Klf11^-/- or wildtype (wt) mice (n=10 for each group) by implanting autologous 5 mm uterine segments onto the peritoneum (FIGS. 3 and 4). […] In addition, COL1A1 polypeptide expression was increased in implants from Klf11^-/- animals (FIGS. 3D and 3H) as compared to those from wt animals (FIGS. 3C and 3G).

Regarding `Clc1cc2c(cc1Cl)Oc1cc(Cl)c(Cl)cc1O2` [Dioxin, 2,3,7,8-tetrachlorodibenzodioxin], the CYP3A4 activation result in the data set on CYP3A4 is “dose-dependently activated”. In addition, the “lesional CYP3A4 expression” value in data set [1] (12 weeks) was “lesional epithelial CYP3A4 activation”. This compound also came in with a Score in data set [1] (12 weeks, P<0.05) of 26.4. The endometriotic disease progression result in data set [1] (evaluated in 12 weeks by morphometry, IHC, qPCR) is on record as “prolific endometriotic progression”.

`O=C(CCCCCCC(=O)Nc1ccccc1)NO` [SAHA, N-hydroxy-N′-phenyl-octanediamide]: the fibrosis entry in the data set with endometriotic lesions was “induction of de novo fibrosis”.
